≈ marks a conversion by molar mass, not a printed value.
Tests used:
[1] = system: human red blood cells; test: Hemolytic activity test; assay type: cell-based; conditions: human erythrocytes, PBS pH 7.4; for IC50: Erythrocyte
Description: The hemolytic activity was assessed using the hemolysis test at treatment concentrations ranged from 7.81 µg/mL to 1000 µg/mL in PBS at pH 7.4. IC50 values were defined as the sample concentration needed to cause 50% hemolysis of human red blood cells. The percentage of hemolysis was determined by measuring ODs at 540 nm as follows (4):(4) Hemolysis %=OD540nm Treatment/OD540nm Positive control×100

[2] = system: VERO cells; test: MTT cell viability assay, normal VERO cells; assay type: cell-based, African green monkey; conditions: Chlorocebus sabaeus, 72 h
Source text: (§1) The human hepatocellular carcinoma cell line HEP-G2 (ATCC HB-8065) and the monkey kidney epithelial cell line VERO (ATCC CCL-81) were obtained from the Laboratory of Immunology and Virology in FCB at UANL (FCB-UANL), México, and cultured in DMEM, supplemented with 10% heat-inactivated FBS, 2% NaHCO3, and HEPES [57]. Murine lymphoma L5178Y-R cells (ATCC CRL-1722) and human peripheral blood mononuclear cells (PBMC) were maintained in RPMI-1640 culture medium, supplemented with 10% heat-inactivated FBS and 1% antibiotic/antimycotic solution [26]. Assays were conducted with adherent HEP-G2 and VERO cells on flat-bottom microplates and non-adherent L5178Y-R and PBMC cells were evaluated on round-bottom microplates.
(§2) Cells were cultured at 37 °C and 5% CO2 in 95% air in a humidified incubator, in the presence or absence of treatments for 72 h. After which they were incubated with MTT (0.5 mg/mL final concentration) at 37 °C in 5% CO2 for 3 h and supernatants were discarded after the incubation period. Resulting formazan crystals were dissolved in DMSO, and optical densities (OD) were measured at 540 nm, using a microplate reader (Molecular Devices Corporation in Palo Alto, CA). In addition, […] (IC50) values were determined after 72 h incubation with treatments at concentrations ranging from 7.81 µg/mL to 1000 µg/mL and ODs were measured at 570 nm on a microplate reader (Molecular Devices Corporation). The positive control consisted of 0.05 µg/mL VS and the negative control was culture medium alone. All treatments were diluted in DMSO to a final well test concentration not exceeding 0.5% (v/v). Cell viability was determined using the following Formula (2):(2) Cell viability %=OD570nmTreatment/OD570nmNegative control×100

[3] = system: PBMC; test: MTT cell viability assay, normal PBMC; assay type: cell-based; conditions: Homo sapiens, 72 h, normal cells
Source text: as §1, §2

[4] = system: human red blood cells; test: Anti-hemolytic activity test (AAPH inhibition); assay type: cell-based; conditions: human erythrocytes, AAPH 150 mM, PBS pH 7.4
Description: The AAPH inhibition test was used to determine the anti-hemolytic activity, as previously reported. Hemolysis was induced by the AAPH radical (150 mM in PBS) as a positive control. Treatment concentrations ranged from 7.81 µg/mL to 1000 µg/mL in PBS at pH 7.4 plus AAPH. IC50 values were defined as the sample concentration needed to cause 50% hemolysis of human red blood cells. The anti-hemolytic activity was evaluated using the following Formula (5):(5) % Anti−hemolytic Activity=1−OD570nm Treatment/OD570nm Positive control×100

[5] = system: HEP-G2 cells; test: MTT cell viability assay, HEP-G2 tumor cells; assay type: cell-based; conditions: Homo sapiens, HepG2, 72 h
Source text: as §1, §2
To determine the selectivity index (SI) for each treatment, we divided the IC50 of […]. SI was assessed for adherent cells (non-tumor/tumor) and for non-adherent cells (non-tumor/tumor). […] SI was calculated using the following Formula (3):(3) SI=IC50 Normal Cells/IC50 Tumor Cells

[6] = system: L5178Y-R cells; test: MTT cell viability assay, L5178Y-R lymphoma cells; assay type: cell-based, murine; conditions: Mus musculus, 72 h, tumor cells
Source text: as §1
Cells were cultured at 37 °C and 5% CO2 in 95% air in a humidified incubator, in the presence or absence of treatments for 72 h. […] Resulting formazan crystals were dissolved in DMSO, and optical densities (OD) were measured at 540 nm, using a microplate reader (Molecular Devices Corporation in Palo Alto, CA). […] Cell viability was determined using the following Formula (2):(2) Cell viability %=OD570nmTreatment/OD570nmNegative control×100
To determine the selectivity index (SI) for each treatment, we divided the IC50 of […]. SI was assessed for adherent cells (non-tumor/tumor) and for non-adherent cells (non-tumor/tumor). […]

Structure (SMILES) | IC50 [1] [µg/mL] | Hemolytic Activity IC50 [1] | IC50 [2] [µg/mL] | IC50 [3] [µg/mL] | IC50 ([4]; Erythrocyte) [µg/mL] | IC50 [5] [µg/mL] | Anti-Hemolytic Activity IC50 [4] | IC50 [6] [µg/mL]
C=CC(C)(C)c1cc2cc3ccoc3cc2oc1=O [CHL, Chalepensin] | 101 ± 4.2 (≈ 397 µM) | did not show significant hemolytic activity | 387 ± 9.24 (≈ 1520 µM) | 226 ± 5.67 (≈ 891 µM) | 180 ± 4.76 (≈ 707 µM) | 76.2 ± 2.85 (≈ 300 µM) |  | 
Cn1c(-c2ccc3c(c2)OCO3)cc(=O)c2ccccc21 [GRV, Graveoline] | 57.6 ± 11.3 (≈ 206 µM) |  | 179 ± 7.39 (≈ 640 µM) | 159 ± 30.6 (≈ 569 µM) |  | 54.6 ± 3.34 (≈ 196 µM) | did not exhibit any anti-hemolytic activity | < 50
C=CC(C)(C)c1cc2cc3c(cc2oc1=O)OC(C(C)(C)OC(C)=O)C3 (stereo not drawn) [RTM, Rutamarin] | > 1500 | did not show significant hemolytic activity | 430 ± 4.07 (≈ 1210 µM) | 151 ± 10.1 (≈ 424 µM) |  | 130 ± 3.68 (≈ 364 µM) | did not exhibit any anti-hemolytic activity | 
